# Assays:
# [1] = target: GST-tagged truncated LRRK2 (Homo sapiens (Human), UniProt Q5S007); experiment: LRRK2 Lantha Screen kinase assay; type: biochemical; details: geometric mean of 2-5 determinations unless otherwise indicated (a: >=6 determinations; b: single determination); read-out: LRRK2 WT IC50
# [2] = target: mutant G2019S LRRK2 (Homo sapiens (Human), UniProt Q5S007, G2019S); experiment: LRRK2 Lantha Screen kinase assay, mutant enzyme; type: biochemical; details: geometric mean of 2-5 determinations unless otherwise indicated (a: >=6 determinations; b: single determination)
# Chain of mutant G2019S LRRK2 (Q5S007 970-2527 G2019S): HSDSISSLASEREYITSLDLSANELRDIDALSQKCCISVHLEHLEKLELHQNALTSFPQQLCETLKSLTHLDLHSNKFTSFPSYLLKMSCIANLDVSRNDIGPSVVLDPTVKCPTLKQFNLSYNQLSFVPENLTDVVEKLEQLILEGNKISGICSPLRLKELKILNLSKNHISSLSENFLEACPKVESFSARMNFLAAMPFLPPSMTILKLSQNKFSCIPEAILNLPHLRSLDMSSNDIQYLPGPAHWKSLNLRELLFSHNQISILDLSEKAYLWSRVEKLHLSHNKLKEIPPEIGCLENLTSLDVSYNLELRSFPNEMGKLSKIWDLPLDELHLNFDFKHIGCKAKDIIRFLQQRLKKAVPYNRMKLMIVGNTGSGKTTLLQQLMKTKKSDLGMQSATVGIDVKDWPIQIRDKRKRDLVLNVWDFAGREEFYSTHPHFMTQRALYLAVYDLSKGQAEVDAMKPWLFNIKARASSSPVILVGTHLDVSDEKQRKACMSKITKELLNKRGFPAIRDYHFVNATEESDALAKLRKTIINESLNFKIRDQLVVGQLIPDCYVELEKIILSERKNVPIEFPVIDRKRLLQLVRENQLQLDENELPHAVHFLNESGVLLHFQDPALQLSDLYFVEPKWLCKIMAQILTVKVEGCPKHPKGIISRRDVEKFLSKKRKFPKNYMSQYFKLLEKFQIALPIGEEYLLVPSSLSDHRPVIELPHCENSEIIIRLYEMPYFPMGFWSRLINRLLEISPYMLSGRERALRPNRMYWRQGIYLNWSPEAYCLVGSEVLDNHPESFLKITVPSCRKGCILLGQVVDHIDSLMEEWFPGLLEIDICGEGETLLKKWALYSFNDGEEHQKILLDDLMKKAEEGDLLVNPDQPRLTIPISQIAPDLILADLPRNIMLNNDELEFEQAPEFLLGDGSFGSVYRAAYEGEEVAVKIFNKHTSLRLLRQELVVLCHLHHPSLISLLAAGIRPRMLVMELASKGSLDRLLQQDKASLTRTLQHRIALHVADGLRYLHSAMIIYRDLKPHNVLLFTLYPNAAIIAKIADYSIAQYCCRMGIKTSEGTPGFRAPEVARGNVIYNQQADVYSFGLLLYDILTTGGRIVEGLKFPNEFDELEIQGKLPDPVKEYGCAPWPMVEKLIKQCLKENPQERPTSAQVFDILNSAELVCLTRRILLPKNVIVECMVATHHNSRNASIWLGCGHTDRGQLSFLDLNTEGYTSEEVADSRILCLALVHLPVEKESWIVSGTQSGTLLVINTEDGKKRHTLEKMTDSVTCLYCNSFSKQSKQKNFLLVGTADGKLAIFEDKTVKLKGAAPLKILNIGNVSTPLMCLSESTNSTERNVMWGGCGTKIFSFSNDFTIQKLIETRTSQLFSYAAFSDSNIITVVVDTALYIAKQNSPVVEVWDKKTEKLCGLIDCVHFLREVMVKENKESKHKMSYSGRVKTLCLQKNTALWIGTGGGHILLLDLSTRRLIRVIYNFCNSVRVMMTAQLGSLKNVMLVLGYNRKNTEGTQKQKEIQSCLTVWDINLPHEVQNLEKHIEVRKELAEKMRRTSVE
# Chain of GST-tagged truncated LRRK2 (Q5S007 970-2527): as the sequence (Q5S007 970-2527 G2019S) above, with S1050G counted along it
Compound,IC50 [1] [nM],IC50 [2] [nM]
"Cc1noc(C2CN(c3ncnc4[nH]cc(-c5cccc(C#N)c5)c34)CCO2)n1 (stereo not drawn) [Example 110, 3-{4-[2-(3-methyl-1,2,4-oxadiazol-5-yl)morpholin-4-yl]-7H-pyrrolo[2,3-d]pyrimidin-5-yl}benzonitrile]",20,176
"CC1CCN(c2ncnc3[nH]cc(-c4cccc(C#N)c4)c23)CC1 [Example 62, 3-[4-(4-methylpiperidin-1-yl)-7H-pyrrolo[2,3-d]pyrimidin-5-yl]benzonitrile]",91,273
"c1cncc(-c2c[nH]c3ncnc(N4CCOCC4)c23)c1 [Example 103, 4-(morpholin-4-yl)-5-(pyridin-3-yl)-7H-pyrrolo[2,3-d]pyrimidine]",35,159

# More lines, in order of falling IC50 [1], values ahead:
IC50 [1] [nM],IC50 [2] [nM],Compound
79,154,"COC1CCCN(c2ncnc3[nH]cc(-c4cccc(C#N)c4)c23)C1 (stereo not drawn) [Example 29, 3-[4-(3-methoxypiperidin-1-yl)-7H-pyrrolo[2,3-d]pyrimidin-5-yl]benzonitrile]"
55,155,"Cc1nc(CC2CN(c3ncnc4[nH]cc(-c5cccc(C#N)c5)c34)CCO2)no1 (stereo not drawn) [Example 145, 3-(4-{2-[(5-methyl-1,2,4-oxadiazol-3-yl)methyl]morpholin-4-yl}-7H-pyrrolo[2,3-d]pyrimidin-5-yl)benzonitrile]"
26,28,"C[C@H]1CCCN(c2ncnc3[nH]cc(-c4ccc(O)cc4)c23)C1 [Example 56, 4-{4-[(3S)-3-methylpiperidin-1-yl]-7H-pyrrolo[2,3-d]pyrimidin-5-yl}phenol]"

# Reference: patent US9156845B2, “4-(substituted amino)-7H-pyrrolo[2,3-d] pyrimidines as LRRK2 inhibitors” (Pfizer Inc., priority 2012, dated 2015)
